Measured values reported in US20050014849A1, “Antifungal phenylethylene” (priority 2001, published 2005).
In brackets after ≈: the same amount, converted by molar mass. Where two headings read alike, the source gives them in different places.

Legend:
C. albicans ATCC 90028 = assay: Broth macrodilution MIC/MFC; assay type: cell-based, Candida albicans; settings: for MFC: Candida albicans ATCC 90028; for MIC: Candida albicans
Method: (§1) TMPN was screened against yeasts by the broth macrodilution assay according to the NCCLS [7]. Yeasts were suspended and diluted as recommended to yield final inocula ranging from 0.5-2.5×10^3 cfu/ml. Tests were performed in sterile 12 by 75 mm plastic tubes containing two-fold dilutions of TMPN in 0.165 M morpholinepropanesulfonic acid buffered RPMI 1640 medium (pH 7.0). One tube was again left drug free (but contained an equivalent volume of DMSO) for a turbidity control. Tubes were incubated without agitation at the appropriate temperature (see Fungal Strains section above). MICs were determined after 72 h for Cryptococcus and after 48 h for other yeast genera. The MIC was defined as the lowest concentration of TMPN that inhibited all visible growth of the test organism (optically clear).
(§2) Minimum fungicidal concentrations (MFCs) were determined by subculturing 0.1 ml from each tube with no visible growth in the MIC broth macrodilution series onto the appropriate drug-free plates (see Fungal Strains section above).
Possible host effects were also evaluated. Broth macrodilution assays were performed with RPMI medium prepared at pH 5, pH 6, and pH 7, and in RPMI medium with and without 50% normal human serum (Lampire Biological Labs). The pH experiments were performed twice on separate days.

C. glabrata ATCC 90030 = assay: Broth macrodilution MIC/MFC; assay type: cell-based, Candida glabrata
Method: as §1, §2

C. glabrata ATCC 2001 = assay: Broth macrodilution MIC/MFC; assay type: cell-based, Candida glabrata
Method: as §1, §2

C. glabrata (8) = assay: Broth macrodilution MIC/MFC; assay type: cell-based, Candida glabrata
Method: as §1, §2

[1] = test system: C. parapsilosis ATCC 22019; assay: Broth macrodilution MIC/MFC; assay type: cell-based, Candida parapsilosis
Method: as §1, §2

C. parapsilosis (10) = assay: Broth macrodilution MIC/MFC; assay type: cell-based, Candida parapsilosis
Method: as §1, §2

[2] = test system: Amphotericin B-resistant C. lusitaniae ATCC 42720; assay: Broth macrodilution MIC/MFC; assay type: cell-based, Candida lusitaniae
Method: as §1, §2

[3] = test system: murine P388 lymphocytic leukemia cell line and six human cancer cell lines; assay: Sulforhodamine B cancer cell growth inhibition (summary over lines); assay type: cell-based
Method: (§3) An investigation TMPN's in vitro antineoplastic activity was also conducted. This investigation included an analysis of both cell growth, and of the effects of TMPN upon tubulin. Inhibition of cancer cell growth was assessed using the Sulforhodamine B assay as previously described. Briefly, cells in 5% fetal calf serum/RPMI-1640 were inoculated into 96 well plates, incubated 24 h and 10-fold dilutions of TMPN added. After a 48 h incubation, plates were fixed with trichloroacetic acid, washed, stained with Sulforhodamine B and read with an automated microtiter plate reader.

T. asahii ATCC 20039 = assay: Broth macrodilution MIC/MFC; assay type: cell-based, Trichosporon asahii
Method: as §1, §2

all bacteria = assay: NCCLS broth macrodilution assay, antibacterial; assay type: cell-based; settings: Neisseria gonorrhoeae; all bacteria (single exception N. gonorrhoeae)
Method: (§4) The antibacterial activity of TMPN was also assessed by the NCCLS broth macrodilution assay. Isolated colonies from overnight cultures were suspended and diluted as recommended to yield final inocula of approximately 5×10^5 cfu/ml. Tests were performed in sterile plastic tubes (12 by 75 mm) containing twofold dilutions of TMPN in gonococcal typing broth (Neisseria), Mueller Hinton II (MHII) (cation adjusted) broth containing 3% lysed horse blood (Streptococcus) or MHII broth (all other bacteria). One tube was left drug-free (but contained an equivalent volume of DMSO) for a turbidity control. Tubes were incubated without agitation at 37° C. with 5% CO2 (Streptococcus, Neisseria), or at 35° C. (remaining bacteria). MICs were determined after 24 h for all bacteria except Micrococcus, which was read at 48 h. The MIC was defined as the lowest concentration of drug that inhibited all visible growth of the test organism (optically clear).

N. gonorrhoeae = assay: NCCLS broth macrodilution assay, antibacterial; assay type: cell-based; settings: Neisseria gonorrhoeae
Method: as §4

C. laurentii ATCC 18803 = assay: Broth macrodilution MIC/MFC; assay type: cell-based, Cryptococcus laurentii
Method: as §1, §2

C. laurentii ATCC 66036 = assay: Broth macrodilution MIC/MFC; assay type: cell-based, Cryptococcus laurentii
Method: as §1, §2

C. laurentii ATCC 34142 = assay: Broth macrodilution MIC/MFC; assay type: cell-based, Cryptococcus laurentii
Method: as §1, §2

P388 leukemia = assay: Sulforhodamine B cancer cell growth inhibition; assay type: cell-based, murine; settings: Mus musculus, 48 h, read-out: GI50 (inhibition of 50% of cell growth)
Method: as §3

C. albidus ATCC 66030 = assay: Broth macrodilution MIC/MFC; assay type: cell-based, Cryptococcus albidus
Method: as §1, §2

C. albidus ATCC 40666 = assay: Broth macrodilution MIC/MFC; assay type: cell-based, Cryptococcus albidus
Method: as §1, §2

C. albidus ATCC 34140 = assay: Broth macrodilution MIC/MFC; assay type: cell-based, Cryptococcus albidus
Method: as §1, §2

What does the source list for `COc1cc(C=C[N+](=O)[O-])cc(OC)c1OC` [TMPN, 1-(3′,4′,5′-trimethoxyphenyl)-2-nitro-ethylene]?
MFC (C. albicans ATCC 90028; ATCC90028, no serum, read-out: MFC): 32 µg/mL (≈ 134 µM); MFC (C. albicans ATCC 90028; ATCC90028, pH 5, read-out: MFC): 32 µg/mL (≈ 134 µM); MFC (C. albicans ATCC 90028; ATCC90028, pH 6, read-out: MFC): 32 µg/mL (≈ 134 µM); MFC (C. albicans ATCC 90028; ATCC90028, pH 7, read-out: MFC): 32 µg/mL (≈ 134 µM); MFC Range (C. albicans ATCC 90028; C. albicans ATCC 90028): 32 µg/mL (≈ 134 µM); MIC Range (C. albicans ATCC 90028; C. albicans ATCC 90028): 32 µg/mL (≈ 134 µM); MFC (C. albicans ATCC 90028; 20 μg/ml bovine serum albumin): 32 (32) μg/ml; MFC (C. albicans ATCC 90028; 40 μg/ml bovine serum albumin): 32 µg/mL (≈ 134 µM); MFC (C. albicans ATCC 90028; no bovine serum albumin): 32 (32) μg/ml; MFC (C. albicans ATCC 90028; pH 5, repeat experiment): 32 (32), 32 (32) μg/ml; MFC (C. albicans ATCC 90028; pH 6, repeat experiment): 32 (32), 32 (32) μg/ml; MFC (C. albicans ATCC 90028; pH 7, repeat experiment): 32 (32), 32 (32) μg/ml; MIC (C. albicans ATCC 90028; ATCC90028, Candida albicans ATCC 90028, 20 μg/ml bovine serum albumin): 32 µg/mL (≈ 134 µM); MIC (C. albicans ATCC 90028; ATCC90028, Candida albicans ATCC 90028, 40 μg/ml bovine serum albumin): 16 µg/mL (≈ 66.9 µM); MIC (C. albicans ATCC 90028; ATCC90028, Candida albicans ATCC 90028, 50% human serum): > 64 µg/mL; MIC (C. albicans ATCC 90028; ATCC90028, Candida albicans ATCC 90028, no bovine serum albumin): 32 µg/mL (≈ 134 µM); MIC (C. albicans ATCC 90028; ATCC90028, Candida albicans ATCC 90028, no serum): 32 µg/mL (≈ 134 µM); MIC (C. albicans ATCC 90028; ATCC90028, pH 5, Candida albicans ATCC 90028, pH 5): 32 µg/mL (≈ 134 µM); MIC (C. albicans ATCC 90028; ATCC90028, pH 5, Candida albicans ATCC 90028, pH 5, repeat experiment): 32 µg/mL (≈ 134 µM); MIC (C. albicans ATCC 90028; ATCC90028, pH 6, Candida albicans ATCC 90028, pH 6): 32 µg/mL (≈ 134 µM); MIC (C. albicans ATCC 90028; ATCC90028, pH 6, Candida albicans ATCC 90028, pH 6, repeat experiment): 32 µg/mL (≈ 134 µM); MIC (C. albicans ATCC 90028; ATCC90028, pH 7, Candida albicans ATCC 90028, pH 7): 32 µg/mL (≈ 134 µM); MIC (C. albicans ATCC 90028; ATCC90028, pH 7, Candida albicans ATCC 90028, pH 7, repeat experiment): 32 µg/mL (≈ 134 µM); MFC Range (C. glabrata ATCC 90030): 16 µg/mL (≈ 66.9 µM); MIC Range (C. glabrata ATCC 90030): 4 µg/mL (≈ 16.7 µM); MFC Range (C. glabrata ATCC 2001): 16 µg/mL (≈ 66.9 µM); MIC Range (C. glabrata ATCC 2001): 8 µg/mL (≈ 33.4 µM); MIC Range (C. glabrata (8)): 8 to 32 µg/mL; MFC Range [1]: 32 µg/mL (≈ 134 µM); MIC Range [1]: 16 µg/mL (≈ 66.9 µM); MIC Range (C. parapsilosis (10)): 16 to 32 µg/mL; MFC Range [2]: 16 µg/mL (≈ 66.9 µM); MIC Range [2]: 16 µg/mL (≈ 66.9 µM); GI50 ([3]; Mus musculus, P388, murine P388 and six human cancer cell lines, read-out: GI50 values, range over cell lines): 1 to 4 µg/mL (≈ 4.18 to 16.7 µM); GI50 values, range over cell lines ([3]; murine P388 and six human cancer cell lines): 1.1 to 4.1 µg/mL; MFC Range (T. asahii ATCC 20039): 16 µg/mL (≈ 66.9 µM); MIC Range (T. asahii ATCC 20039): 8 µg/mL (≈ 33.4 µM); MIC (all bacteria): > 64 µg/mL; MIC (N. gonorrhoeae): 4 µg/mL (≈ 16.7 µM); MFC Range (C. laurentii ATCC 18803): 32 µg/mL (≈ 134 µM); MIC Range (C. laurentii ATCC 18803): 16 µg/mL (≈ 66.9 µM); MFC Range (C. laurentii ATCC 66036): 32 µg/mL (≈ 134 µM); MIC Range (C. laurentii ATCC 66036): 16 µg/mL (≈ 66.9 µM); MFC Range (C. laurentii ATCC 34142): 32 µg/mL (≈ 134 µM); MIC Range (C. laurentii ATCC 34142): 32 µg/mL (≈ 134 µM); GI50 (P388 leukemia): 4.15 µg/mL (≈ 17.3 µM); MFC Range (C. albidus ATCC 66030): 16 µg/mL (≈ 66.9 µM); MIC Range (C. albidus ATCC 66030): 8 µg/mL (≈ 33.4 µM); MFC Range (C. albidus ATCC 40666): 32 µg/mL (≈ 134 µM); MIC Range (C. albidus ATCC 40666): 8 µg/mL (≈ 33.4 µM); MFC Range (C. albidus ATCC 34140): 32 µg/mL (≈ 134 µM); MIC Range (C. albidus ATCC 34140): 32 µg/mL (≈ 134 µM)
